Data on two compounds can be found in US4450163A, “Process for the preparation of 1,3,7-trialkyl xanthines and di(3,7-dimethylxanthin-1-yl)methane as a medicament” (Societe d'Assistance Technique pour Produits Nestle S.A., priority 1979, dated 1984).

Data set [1] in a line: pharmacological studies (immunosuppressant activity, adverse effects). The format is in vivo. The conditions noted are these: in words.
The test system of data set [2] is ear-swelling in mice in response to antigenic challenge. Put plainly: dermal delayed hypersensitivity test (oxazolone), inhibition of ear-swelling in mice. The format is in vivo. The conditions noted are these: oxazolone sensitized, 150 mg/kg b.w. i.p. at challenge, ear thickness 24 hours after challenge, compared to control animals. The method, then:
Immunosuppression of the compound of Example 25 was compared with cyclophosphamide, a known immunosuppressant drug, as an inhibitor of ear-swelling in mice in response to antigenic challenge in a dermal delayed hypersensitivity test at 150 mg/kg body weight.
The test was performed as is described e.g. by G. L. Asherton and W. Ptak in Immunology 15, 405 (1968). Mice were immunized by applying on the abdomen skin 0.1 ml of a 3% oxazolone solution. 7 days after sensitization, they were challenged by painting the same solution on the ear skin. Part of the mice were simultaneously administered i.p. the immunosuppressant drug of Example 25 or cyclophosphamide. The remaining animals served as controls. 24 hours after challenge, the increase in ear thickness was measured. Immunosuppressant activity was expressed in % of inhibition of ear-swelling in drug-administered mice compared to control animals.

Each structure is given as a SMILES string.

Regarding `Cn1cnc2c1c(=O)n(Cn1c(=O)c3c(ncn3C)n(C)c1=O)c(=O)n2C` [Example 25, di(3,7-dimethylxanthin-1-yl)methane], in data set [1], the immunosuppressant activity entry was “has an immunosuppressant activity” and the toxic adverse effect entry was “no toxic adverse effect”. For the same compound, in data set [2], the “% inhib. of ear-swelling” value was 55%.
Take `O=P1(N(CCCl)CCCl)NCCCO1` (stereo not shown) [Cyclophosphamide, reference compound]: in data set [2], the “% inhib. of ear-swelling” value was found to be 73%.
